Results as given in patent US20250057864A1, “COMPOSITION FOR IMPROVING EXERCISE PERFORMANCE COMPRISING GYPENOSIDE COMPOUND AS ACTIVE INGREDIENT” (BTC CORPORATION, priority 2022, published 2025).

How the values were obtained:
ICR mice [1] = experiment: Weight-loaded forced swimming test, time to exhaustion; assay type: in vivo; settings: forced swimming with 5% BW load, day 14, oral 7 mg/kg BW
Method: After an acclimatization period of 1 week, healthy animals were selected and divided into 6 groups of 10 mice per group according to the randomized block design. A normal control group was orally administered with 5% Tween 80-saline, and a composition was orally administered with Creatine monohydrate (Cr) at 75 mg/kg body weight (BW). Test groups (G2 to G5) were orally administered the compositions of Examples 1 to 4 dissolved in drinking water to 7 mg/kg body weight (BW) at regular times for 17 days. Throughout the test period, the experimental animals were given free access to solid feed for experimental animals (Cargill Agri Puna) and drinking water.
Weight-loaded forced swimming test was performed for the experimental animals as follows. A plastic pool (90×45×45 cm) was filled with water at the depth of 35 cm and the temperature of the water was maintained at 25±1° C. After attaching a weight (5% of the body weight of the experimental animal) to the tail, the experimental animal was forced to swim in the pool.
On days 10 and 12 after the administration of the test substance, swimming adaptation exercise was given twice for 15 minutes each. Two days after the final swimming adaptation exercise (on day 14 after the administration of the test substance), forced swim test was performed after fasting the experimental animal for 16 hour, and the time until exhaustion was measured. […]

ICR mice [2] = experiment: Serum markers after 60 min forced swimming without weight load; assay type: in vivo; settings: serum after 60 min forced swimming, day 17, oral 7 mg/kg BW
Method: On day 17 after the administration of the test substance, the experimental animal was forced to swim (for 60 minutes) without a weight load. Then, the experimental animal was anesthetized using an anesthetic prepared by dilution of tribromoethanol with tertiary amyl alcohol and blood was taken from the eye socket. The blood was placed in a serum-separating tube (Becton Dickinson) and left at room temperature for 30 minutes, centrifuged at 3,000 rpm for 20 minutes to separate the serum, and kept at −70° C. until analysis.
Blood urea nitrogen (BUN) and creatinine (CREA) content in the serum and the activities of alanine aminotransferase (ALT), aspartate aminotransferase (AST), creatine kinase (CK) and lactate dehydrogenase (LDH) were measured using a blood biochemistry analyzer (KoneLab 20 XT, Thermo Fisher Scientific). The serum lactate content was measured using a lactate assay kit (Abcam) according to the method proposed by the manufacturer.
The result of measuring the contents of lactate, BUN and CREA and the activities of CK, LDH, ALT and AST in the serum taken after forced swimming for 60 minutes without weight load is shown in Table 19.

ICR mice [3] = experiment: Treadmill test: exercise time and exercise capacity until exhaustion; assay type: in vivo; settings: 6 weeks
Method: After an acclimatization period of 1 week, healthy animals were selected and divided into 6 groups according to the randomized block design. The animals were divided into (G1) a non-exercise control group, (G2) a non-exercise+7 mg/kg body weight (BW) Example 1 group, (G3) a non-exercise+7 mg/kg BW Example 2 group, (G4) a non-exercise+7 mg/kg BW Example 3 group, (G5) a non-exercise+7 mg/kg BW Example 4 group, (G6) an exercise control group, (G7) an exercise+7 mg/kg BW Example 1 group, (G8) an exercise+7 mg/kg BW Example 2 group, (G9) an exercise+7 mg/kg BW Example 3 group, (G10) an exercise+7 mg/kg BW Example 4 group, and (G11) an exercise+75 mg/kg BW Cr dose group. Each test group consisted of 10 animals.
The test substance was dissolved in drinking water and administered every day at regular times (2 hours before exercise) for 6 weeks. Throughout the test period, the experimental animals were given free access to solid feed for experimental animals (Cargill Agri Puna) and drinking water.
The endurance exercise of the animals was conducted for 6 weeks using a treadmill for small animals (Exer3/6 Treadmill, Columbus Instruments). The endurance exercise was conducted with 10 degrees of slope at 10 m/min, starting from for 15 minutes in the first week, for 20 minutes in the second week, for 25 minutes in the third week, for 30 minutes in the fourth week, for 35 minutes in the fifth week, and for 40 minutes in the sixth week.
After 6 weeks of the exercise training, in order to evaluate endurance exercise performance, exercise was started with 10 degrees of slope at 10 m/min for 5 minutes, and the intensity of the exercise was increased by 1 m/min every 1 minute up to the highest speed of 25 m/min. The duration of the exercise until exhaustion was measured. The experimental animal was judged to be exhausted if it was unable to run for 10 seconds or longer at the back of the treadmill. The exercise capacity of the experimental animal was calculated as follows.
In order to evaluate the performance of the effect of the test substances on endurance exercise performance, exercise was started with 10 degrees of slope at 10 m/min for 5 minutes, and the intensity of the exercise was increased by 1 m/min every 1 minute up to the highest speed of 25 m/min.

C2C12 cells = experiment: Intracellular ROS production in C2C12 cells (DCF-DA); assay type: cell-based, mice; settings: oxidative stress by 50 μM TBHP, 1 h pretreatment with test substance
Method: C2C12 cells were dispensed into a 96-well plate at 1×10^4 cells/well and stabilized for 24 hours. Subsequently, the cells were cultured for 1 hour after exchanging with the culture medium with the myocyte differentiation medium containing each test substance. After 1 hour, the cells were washed with PBS and cultured further for 3 hours with a culture medium containing 50 μM tert-butyl hydrogen peroxide (TBHP), and the ROS level in the cells was measured using a DCF-DA assay kit (Abcam) according to the manufacturer's method.
In order to investigate the effect of each of the compositions according to Examples 1 to 4 on ROS production in C2C12 cells, ROS production was measured using 2′,7′-dichlorofluorescin diacetate (DCF-DA). DCF-DA was measured using the principle that it is oxidized by ROS in cells and is converted to DCF, which emits fluorescence.

[4] = non-exercise, 7 mg/kg BW, treadmill test
[5] = treadmill exercise, 7 mg/kg BW (Cr 75 mg/kg BW)

**Q.** With `CC(C)=CCC[C@](C)(O)C1CC[C@]2(C)C1[C@H](O)CC1[C@@]3(C)C[C@@H](O)C(OC4OC(CO)C(O)C(O)C4OC4OC(CO)C(O)C(O)C4O)C(C)(C)C3CC[C@]12C` (stereo partly drawn) [Example 1, Gypenoside L] as the molecule, how does the “Time to exhaustion” value (ICR mice [1]) read?
**A.** Its value is 1193.4 ± 176.8 s.

**Q.** What about the ALT (ICR mice [2]) of the same molecule?
**A.** The ALT was 100.41 ± 19.75 U/L.

**Q.** What about the AST (ICR mice [2]) of the same molecule?
**A.** Its AST is 160.81 ± 20.53 U/L.

**Q.** What about the BUN (ICR mice [2]) of the same molecule?
**A.** The BUN was 8.15 ± 0.68 mg/dL.

**Q.** What about the CK (ICR mice [2]) of the same molecule?
**A.** Its CK is 1896.1 ± 196.4 U/L.

**Q.** And the CREA (ICR mice [2])?
**A.** The CREA was 0.35 ± 0.01 mg/dL.

**Q.** What about the LDH (ICR mice [2]) of the same molecule?
**A.** Its LDH is 1224.3 ± 162.1 U/L.

**Q.** What about the Exercise capacity (ICR mice [3]; [4]) of the same molecule?
**A.** The Exercise capacity was 1,583 ± 91 g.

**Q.** What about the “Time until exhaustion (sec)” value (ICR mice [3]; [4]) of the same molecule?
**A.** The value was 1,472 ± 66 sec.

**Q.** What about the Exercise capacity (ICR mice [3]; [5]) of the same molecule?
**A.** The Exercise capacity was 2,832 ± 119^+ g.

**Q.** What about the “Time until exhaustion (sec)” value (ICR mice [3]; [5]) of the same molecule?
**A.** Its value is 2,393 ± 93^+ sec.

**Q.** And the “ROS production (fluorescence intensity)” value (C2C12 cells)?
**A.** Its value is 22.12 ± 0.70 fluorescence intensity.
